Test results taken from ChEMBL document CHEMBL5537134, “Targeting the pyruvate dehydrogenase complex/pyruvate dehydrogenase kinase (PDC/PDK) axis to discover potent PDK inhibitors through structure-based virtual screening and pharmacological evaluation” (Eur J Med Chem, 2024).
Calls of active or inactive are those of the source. The rule behind the calls is not given here.

Assays:
[1] = Toxicity in Balb/c mouse assessed as pathological abnormality in liver at 50 mg/kg, ip administered for 7 days by hematoxylin and eosin staining based analysis; format: organism-based; settings: in vivo, 168 h, time 7 day
[2] = Toxicity in Balb/c mouse assessed as pathological abnormality in lung at 50 mg/kg, ip administered for 7 days by hematoxylin and eosin staining based analysis; format: organism-based; settings: in vivo, 168 h, time 7 day
[3] = Toxicity in Balb/c mouse assessed as pathological abnormality in spleen at 50 mg/kg, ip administered for 7 days by hematoxylin and eosin staining based analysis; format: organism-based; settings: in vivo, 168 h, time 7 day
[4] = Toxicity in Balb/c mouse assessed as pathological abnormality in heart at 50 mg/kg, ip administered for 7 days by hematoxylin and eosin staining based analysis; format: organism-based; settings: in vivo, 168 h, time 7 day
[5] = Toxicity in Balb/c mouse assessed as death at 50 mg/kg, ip administered for 7 days; format: organism-based; settings: in vivo, 168 h, time 7 day
[6] = Toxicity in Balb/c mouse assessed as change in body weight at 50 mg/kg, ip administered for 7 days; format: organism-based; settings: in vivo, 168 h, time 7 day
A549 [7] = assay: Antiproliferative activity against human A549 cells assessed as reduction in cell viability at 40 uM incubated for 72 hrs by MTT assay; format: functional, cell-based
[8] = target: [Pyruvate dehydrogenase (acetyl-transferring)] kinase isozyme 2, mitochondrial (Homo sapiens, UniProt Q15119); assay: Inhibition of recombinant full length human PDK2 (1 to 407 residues) expressed in baculovirus infected Sf9 cells using PDHA1 as substrate incubated for 1 hrs in presence of ATP by ADP-Glo luminescence assay
A549 [9] = assay: Anticancer activity against human A549 cells assessed as inhibition of cell growth at 20 uM by IncuCyte Zoom live cell imaging analysis; format: functional, cell-based; settings: time 24-72 hrs, TDE = time-dependent effect
A549 [10] = assay: Antiproliferative activity against human A549 cells assessed as reduction in cell viability incubated for 72 hrs under hypoxic condition by MTT assay; settings: A549, 72 h
BEAS-2B = assay: Cytotoxicity against human BEAS-2B cells assessed as reduction in cell viability upto 50 uM incubated for 72 hrs by MTT assay; format: toxicity, cell-based
A549 [11] = assay: Induction of cell cycle arrest in human A549 cells assessed as accumulation of cells at G2 phase at 7.5 uM incubated for 24 hrs by Propidium Iodide staining based flow cytometry analysis (reference value: 13.19 %); format: functional
A549 [12] = assay: Induction of cell cycle arrest in human A549 cells assessed as accumulation of cells at S phase at 7.5 uM incubated for 24 hrs by Propidium Iodide staining based flow cytometry analysis (reference value: 36.92 %); format: functional
A549 [13] = assay: Induction of cell cycle arrest in human A549 cells assessed as accumulation of cells at G1 phase at 7.5 uM incubated for 24 hrs by Propidium Iodide staining based flow cytometry analysis (reference value: 49.88 %); format: functional
A549 [14] = assay: Induction of cell cycle arrest in human A549 cells assessed as accumulation of cells at G2 phase at 5 uM incubated for 24 hrs by Propidium Iodide staining based flow cytometry analysis (reference value: 13.19 %); format: functional
A549 [15] = assay: Induction of cell cycle arrest in human A549 cells assessed as accumulation of cells at S phase at 5 uM incubated for 24 hrs by Propidium Iodide staining based flow cytometry analysis (reference value: 36.92 %); format: functional
A549 [16] = assay: Induction of cell cycle arrest in human A549 cells assessed as accumulation of cells at G1 phase at 5 uM incubated for 24 hrs by Propidium Iodide staining based flow cytometry analysis (reference value: 49.88 %); format: functional
A549 [17] = assay: Induction of cell cycle arrest in human A549 cells assessed as accumulation of cells at G2 phase at 10 uM incubated for 24 hrs by Propidium Iodide staining based flow cytometry analysis (reference value: 13.19 %); format: functional
A549 [18] = assay: Induction of cell cycle arrest in human A549 cells assessed as accumulation of cells at S phase at 10 uM incubated for 24 hrs by Propidium Iodide staining based flow cytometry analysis (reference value: 36.92 %); format: functional
A549 [19] = assay: Induction of cell cycle arrest in human A549 cells assessed as accumulation of cells at G1 phase at 10 uM incubated for 24 hrs by Propidium Iodide staining based flow cytometry analysis (reference value: 49.88 %); format: functional
A549 [20] = assay: Induction of apoptosis in human A549 cells at 20 uM by Annexin V-FITC/Propidium Iodide staining based flow cytometry analysis; format: functional, cell-based; settings: time 12-48 hrs, TDE = time-dependent effect
A549 [21] = assay: Induction of apoptosis in human A549 cells at 20 uM incubated for 24 hrs by Annexin V-FITC/Propidium Iodide staining based flow cytometry analysis relative to control; format: functional
A549 [22] = assay: Induction of apoptosis in human A549 cells incubated for 48 hrs by Annexin V-FITC/Propidium Iodide staining based flow cytometry analysis; format: functional, cell-based; settings: dose 5-20 µM
A549 [23] = assay: Induction of apoptosis in human A549 cells at 20 uM incubated for 12 hrs by Annexin V-FITC/Propidium Iodide staining based flow cytometry analysis relative to control; format: functional
A549 [24] = assay: Induction of apoptosis in human A549 cells assessed as apoptotic cells at 20 uM incubated for 48 hrs by Annexin V-FITC/Propidium Iodide staining based flow cytometry analysis relative to control; format: functional
A549 [25] = assay: Induction of apoptosis in human A549 cells assessed as apoptotic cells at 10 uM incubated for 48 hrs by Annexin V-FITC/Propidium Iodide staining based flow cytometry analysis relative to control; format: functional
A549 [26] = assay: Induction of apoptosis in human A549 cells assessed as apoptotic cells at 5 uM incubated for 48 hrs by Annexin V-FITC/Propidium Iodide staining based flow cytometry analysis relative to control; format: functional
[27] = Toxicity in Balb/c mouse assessed as pathological abnormality in kidney at 50 mg/kg, ip administered for 7 days by hematoxylin and eosin staining based analysis; format: organism-based; settings: in vivo, 168 h, time 7 day
Cell membrane [28] = assay: Induction of mitochondrial membrane depolarization in human A549 cells assessed as decrease in lactate formation incubated for 8 hrs by NovaBioprofile Flex analyzer method; format: cell membranes; settings: dose 10-40 µM
Cell membrane [29] = assay: Induction of mitochondrial membrane depolarization in human A549 cells assessed as decrease in extracellular acidification by Seahorse XFe96 extracellular flux analyzer method; format: cell membranes; settings: dose 10-40 µM
Cell membrane [30] = assay: Induction of mitochondrial membrane depolarization in human A549 cells assessed as increase in oxygen consumption rate by Seahorse XFe96 extracellular flux analyzer method; format: cell membranes; settings: dose 10-40 µM
Cell membrane [31] = assay: Induction of mitochondrial membrane depolarization in human A549 cells assessed as increase in green fluorescence intensity at 5 to 20 uM incubated for 4 hrs by JC-1 staining based laser scanning confocal microscope analysis; format: cell membranes; settings: dose 5-20 µM
Cell membrane [32] = assay: Induction of mitochondrial membrane depolarization in human A549 cells assessed as increase in JC-1 monomer incubated for 4 hrs by JC-1 staining based flow cytometry analysis; format: cell membranes; settings: dose 5-20 µM
Cell membrane [33] = assay: Induction of mitochondrial membrane depolarization in human A549 cells assessed as disappearance of red fluorescence at 5 to 20 uM incubated for 4 hrs by TMRM staining based laser scanning confocal microscope analysis; format: cell membranes; settings: dose 5-20 µM
[34] = Toxicity in Balb/c mouse assessed as clinical signs at 50 mg/kg, ip administered for 7 days; format: organism-based; settings: in vivo, 168 h, time 7 day
A549 [35] = assay: cells; settings: Homo sapiens
Description: Anticancer activity against human A549 cells assessed as inhibition of cell growth incubated for 24 to 72 hrs by IncuCyte Zoom live cell imaging analysis

[36] = target: T1, [Pyruvate dehydrogenase (acetyl-transferring)] kinase isozyme 1, mitochondrial (Homo sapiens, UniProt Q15118); assay: Inhibition of recombinant full-length human PDK1 (1 to 436 residues) expressed in baculovirus infected Sf9 insect cells using PDHA1 as substrate at 10 uM incubated for 1 hrs in presence of ATP by Kinase-Glo luminescence assay
[37] = target: T1, [Pyruvate dehydrogenase (acetyl-transferring)] kinase isozyme 1, mitochondrial; assay: Binding affinity to PDK1 (unknown origin) assessed as dissociation constant
[38] = target: T1, [Pyruvate dehydrogenase (acetyl-transferring)] kinase isozyme 1, mitochondrial; assay: Binding affinity to PDK1 (unknown origin) assessed as dissociation constant in presence of 5-((4-chlorophenyl)sulfonamido)-N-(2-hydroxyethyl)-2,4-dimethylbenzenesulfonamide
[39] = target: T1, [Pyruvate dehydrogenase (acetyl-transferring)] kinase isozyme 1, mitochondrial; assay: Inhibition of recombinant full-length human PDK1 (1 to 436 residues) expressed in baculovirus infected Sf9 insect cells using PDHA1 as substrate incubated for 1 hrs in presence of ATP by Kinase-Glo luminescence assay
A549 [40] = assay: Anticancer activity against human A549 cells assessed as reduction in cell growth at 20 uM by IncuCyte Zoom live cell imaging analysis; format: functional, cell-based
[41] = target: T1, [Pyruvate dehydrogenase (acetyl-transferring)] kinase isozyme 1, mitochondrial; assay: Inhibition of 6His-tagged full length PDK1 (unknown origin) expressed in Escherichia coli in presence of ATP by ELISA based kinase activity assay
A549 [42] = assay: Antiproliferative activity against human A549 cells assessed as reduction in cell viability incubated for 72 hrs by CCK8 assay; format: functional, cell-based; settings: A549, 72 h

T1 sequence (Q15118 whole entry, the tested form may be a part): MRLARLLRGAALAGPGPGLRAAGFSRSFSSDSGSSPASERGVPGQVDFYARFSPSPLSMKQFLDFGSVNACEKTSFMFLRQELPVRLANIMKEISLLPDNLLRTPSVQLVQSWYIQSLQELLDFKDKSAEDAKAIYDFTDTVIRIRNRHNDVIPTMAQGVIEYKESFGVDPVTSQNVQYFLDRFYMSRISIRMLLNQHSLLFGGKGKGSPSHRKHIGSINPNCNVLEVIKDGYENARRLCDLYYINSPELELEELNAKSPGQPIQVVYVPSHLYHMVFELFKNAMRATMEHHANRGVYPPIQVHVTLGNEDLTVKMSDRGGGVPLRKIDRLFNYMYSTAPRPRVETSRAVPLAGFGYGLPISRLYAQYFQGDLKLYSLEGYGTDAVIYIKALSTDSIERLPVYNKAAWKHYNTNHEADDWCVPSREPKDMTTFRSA

Question: Which Activity [1] does the source give for Cc1cc(C)c(S(=O)(=O)NCCO)cc1NS(=O)(=O)c1ccc(Cl)cc1 here?
Answer: Non-Toxic

Question: And the Activity [2]?
Answer: Non-Toxic

Question: And the Activity [3]?
Answer: Non-Toxic

Question: And the Activity [4]?
Answer: Non-Toxic

Question: What about the Activity [5] of the same molecule?
Answer: Non-Toxic

Question: What about the Activity [6] of the same molecule?
Answer: Non-Toxic

Question: And the Activity (A549 [7])?
Answer: Active

Question: And the IC50 [8]?
Answer: 0.136 µM

Question: What about the Activity (A549 [9]) of the same molecule?
Answer: Tde

Question: And the IC50 (A549 [10])?
Answer: 5.67 µM

Question: And the Activity (BEAS-2B)?
Answer: Non-Toxic

Question: And the Activity (A549 [11])?
Answer: 7.98%

Question: And the Activity (A549 [12])?
Answer: 42.37%

Question: And the Activity (A549 [13])?
Answer: 49.65%

Question: And the Activity (A549 [14])?
Answer: 12.31%

Question: What about the Activity (A549 [15]) of the same molecule?
Answer: 32.44%

Question: What about the Activity (A549 [16]) of the same molecule?
Answer: 55.25%

Question: What about the Activity (A549 [17]) of the same molecule?
Answer: 1.58%

Question: And the Activity (A549 [18])?
Answer: 50.66%

Question: And the Activity (A549 [19])?
Answer: 47.77%

Question: And the Activity (A549 [20])?
Answer: Tde

Question: And the Activity (A549 [21])?
Answer: 60%

Question: What about the Activity (A549 [22]) of the same molecule?
Answer: Dose-Dependent Effect

Question: And the Activity (A549 [23])?
Answer: 10.8%

Question: And the Activity (A549 [24])?
Answer: 80.5%

Question: What about the Activity (A549 [25]) of the same molecule?
Answer: 23.8%

Question: What about the Activity (A549 [26]) of the same molecule?
Answer: 8.8%

Question: What about the Activity [27] of the same molecule?
Answer: Non-Toxic

Question: What about the Activity (Cell membrane [28]) of the same molecule?
Answer: Dose-Dependent Effect

Question: And the Activity (Cell membrane [29])?
Answer: Dose-Dependent Effect

Question: What about the Activity (Cell membrane [30]) of the same molecule?
Answer: Dose-Dependent Effect

Question: And the Activity (Cell membrane [31])?
Answer: Active

Question: And the Activity (Cell membrane [32])?
Answer: Dose-Dependent Effect

Question: And the Activity (Cell membrane [33])?
Answer: Active

Question: What about the Activity [34] of the same molecule?
Answer: Non-Toxic

Question: What about the EC50 (A549 [35]) of the same molecule?
Answer: 10.7 µM

Question: With O=C(c1cccc(S(=O)(=O)Nc2cc(Cl)ccc2Cl)c1)N1CCN(CCO)CC1 as the molecule, how does the inhibition [36] read?
Answer: Active

Question: With CN(C)C(=O)c1ccc(S(=O)(=O)c2ccc(NC(=O)[C@@](C)(O)C(F)(F)F)c(Cl)c2)cc1 as the molecule, how does the Kd [37] read?
Answer: 0.148 µM

Question: What about the Kd [38] of the same molecule?
Answer: 8.9 µM

Question: What about the IC50 [39] of the same molecule?
Answer: 0.0323 µM

Question: What about the IC50 [8] of the same molecule?
Answer: 0.0745 µM

Question: And the Activity (A549 [40])?
Answer: inactive

Question: And the Activity (A549 [17])?
Answer: 13.47%

Question: And the Activity (A549 [18])?
Answer: 18.03%

Question: What about the Activity (A549 [19]) of the same molecule?
Answer: 68.5%

Question: Which Activity (A549 [7]) does the source give for CC(C)[C@H](NC(=O)N1CCN(C(c2ccc(F)cc2)c2ccc(F)cc2)CC1)C(=O)O here?
Answer: Active

Question: Which EC50 [41] does the source give for S=C(SSC(=S)N1CCOCC1)N1CCOCC1 here?
Answer: 0.049 µM

Question: And the IC50 (A549 [42])?
Answer: < 0.5 µM
